Source: patent US20200239530A1, “COMPOUNDS AND METHODS OF MODULATING PROTEIN DEGRADATION” (Vividion Therapeutics, Inc., priority 2017, published 2020)

Assays:
[1] = biological target: T1, KIAA0528 Uncharacterized protein KIAA0528 (Homo sapiens, UniProt Q86YS7); experiment: Cysteine liganding, probe competition; assay type: binding
T1 construct: Cells were resuspended in cold PBS on ice and sonicated with a probe sonicator to achieve lysis; endogenous in cells
T1 sequence (Q86YS7 1-1000): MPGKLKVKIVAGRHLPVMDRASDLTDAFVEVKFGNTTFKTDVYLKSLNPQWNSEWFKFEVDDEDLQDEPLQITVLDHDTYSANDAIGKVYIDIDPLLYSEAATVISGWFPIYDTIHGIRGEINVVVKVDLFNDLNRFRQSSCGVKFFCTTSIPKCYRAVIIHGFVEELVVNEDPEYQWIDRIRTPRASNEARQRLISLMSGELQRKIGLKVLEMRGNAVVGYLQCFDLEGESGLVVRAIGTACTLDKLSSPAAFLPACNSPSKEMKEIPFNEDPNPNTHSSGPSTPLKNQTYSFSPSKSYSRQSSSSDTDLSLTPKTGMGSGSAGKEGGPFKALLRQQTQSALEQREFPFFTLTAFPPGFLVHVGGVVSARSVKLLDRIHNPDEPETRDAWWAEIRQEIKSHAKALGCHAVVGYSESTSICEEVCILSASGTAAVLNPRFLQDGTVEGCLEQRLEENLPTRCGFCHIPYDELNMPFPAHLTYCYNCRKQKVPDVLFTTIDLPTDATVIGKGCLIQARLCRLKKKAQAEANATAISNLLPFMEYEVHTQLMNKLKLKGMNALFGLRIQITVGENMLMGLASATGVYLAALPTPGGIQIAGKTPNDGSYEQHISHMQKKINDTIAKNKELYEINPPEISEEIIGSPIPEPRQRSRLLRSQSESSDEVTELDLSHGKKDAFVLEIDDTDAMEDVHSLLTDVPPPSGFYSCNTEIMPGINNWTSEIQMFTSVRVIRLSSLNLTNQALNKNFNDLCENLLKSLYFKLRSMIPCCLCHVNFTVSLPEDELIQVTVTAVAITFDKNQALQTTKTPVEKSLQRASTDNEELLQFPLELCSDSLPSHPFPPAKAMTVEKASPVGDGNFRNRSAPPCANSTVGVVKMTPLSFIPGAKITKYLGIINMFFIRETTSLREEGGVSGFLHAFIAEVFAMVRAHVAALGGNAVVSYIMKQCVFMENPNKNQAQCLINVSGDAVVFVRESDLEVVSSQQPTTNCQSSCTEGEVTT
How it was run: (§1)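 Probe competition in native proteome: 5 mg/ml lysate, compound 1 hr 25° C, then desthiobiotin iodoacetamide (10 mM stock) 1 hr 25° C; acetone ppt, urea/DTT reduction, iodoacetamide alkylation, trypsin, streptavidin pull-down.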

[2] = biological target: T2, RPS6KA3 Ribosomal protein S6 kinase alpha-3 (Homo sapiens, UniProt P51812); experiment: Cysteine liganding, probe competition; assay type: binding
T2 construct: Cells were resuspended in cold PBS on ice and sonicated with a probe sonicator to achieve lysis; endogenous in cells
How it was run: as §1

T2 sequence (P51812 whole entry): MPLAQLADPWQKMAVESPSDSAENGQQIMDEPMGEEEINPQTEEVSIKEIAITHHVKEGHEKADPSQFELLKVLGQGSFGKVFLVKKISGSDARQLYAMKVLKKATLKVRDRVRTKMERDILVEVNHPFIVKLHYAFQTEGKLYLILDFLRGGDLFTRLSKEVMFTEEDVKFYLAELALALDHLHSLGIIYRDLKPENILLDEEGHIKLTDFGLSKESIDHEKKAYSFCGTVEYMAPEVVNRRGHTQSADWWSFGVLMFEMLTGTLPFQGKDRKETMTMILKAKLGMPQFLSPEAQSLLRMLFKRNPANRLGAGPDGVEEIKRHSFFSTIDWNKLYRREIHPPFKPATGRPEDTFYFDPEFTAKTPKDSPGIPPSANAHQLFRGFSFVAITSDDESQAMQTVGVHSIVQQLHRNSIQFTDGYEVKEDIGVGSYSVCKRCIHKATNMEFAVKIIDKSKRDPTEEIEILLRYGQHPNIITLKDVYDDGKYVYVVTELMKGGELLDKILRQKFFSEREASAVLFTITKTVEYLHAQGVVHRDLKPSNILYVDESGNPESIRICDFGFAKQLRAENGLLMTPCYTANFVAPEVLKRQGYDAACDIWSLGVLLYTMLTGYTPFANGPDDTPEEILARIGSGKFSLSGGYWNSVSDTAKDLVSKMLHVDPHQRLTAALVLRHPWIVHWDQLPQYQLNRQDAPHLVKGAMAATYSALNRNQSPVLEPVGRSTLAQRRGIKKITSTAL

`COc1ccc2c(c1)CCCN2C(=O)CCl` [KB02] was tested, and the Liganded ([1]; KIAA0528 Res# 867, uniprot Q86YS7) was “YES” and the Liganded ([2]; RPS6KA3 Res# 229, uniprot P51812) was “YES”.

In the case of `O=C(CCl)Nc1cc(C(F)(F)F)cc(C(F)(F)F)c1` [KBO3], the 100 ave ([1]; uniprot Q86YS7) was −6.4125, the “500 Max” value ([1]; uniprot Q86YS7) was 46.81 and the 500 ave ([1]; uniprot Q86YS7) was 33.415. The 100 Max ([1]; uniprot Q86YS7, unit assumed) was 7.23%, the “100 Max” value ([2]; uniprot P51812) was 1.03 and the 100 ave ([2]; uniprot P51812) was −4.767. For the same molecule, the 500 ave ([2]; uniprot P51812) was 30.61 and the “500 Max” value ([2]; uniprot P51812, in % (unit assumed)) was 30.61.
